Assays:
Assay in all cases: relative viability (nuclei count vs DMSO), 5 days (fraction); higher = more cells survive
[1] = tested on: 201T
Outline: (§1)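 One day after seeding in 1536-well plates, lung cancer cell lines were dosed by pin tool. Dosing was either single-drug or a fixed anchor-drug dose plus five library-drug doses (not always all listed) in √10 steps. After 5 days, nuclei were stained in one fix-and-stain step and counted on 4× images, and relative viability is the nuclei count of treated wells over that of vehicle wells, given as the median of duplicate plates.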

[2] = tested on: COR-L23
Outline: as §1

[3] = tested on: EPLC-272H
Outline: as §1

[4] = tested on: H3255
Outline: as §1

[5] = tested on: HCC-44
Outline: as §1

[6] = tested on: LOU-NH91
Outline: as §1

[7] = tested on: NCI-H1563
Outline: as §1

[8] = tested on: NCI-H1650
Outline: as §1

[9] = tested on: NCI-H1734
Outline: as §1

[10] = tested on: NCI-H1793
Outline: as §1

[11] = tested on: NCI-H1993
Outline: as §1

[12] = tested on: NCI-H2023
Outline: as §1

[13] = tested on: NCI-H2085
Outline: as §1

[14] = tested on: NCI-H2170
Outline: as §1

[15] = tested on: NCI-H2347
Outline: as §1

[16] = tested on: NCI-H2405
Outline: as §1

[17] = tested on: NCI-H3122
Outline: as §1

[18] = tested on: NCI-H441
Outline: as §1

[19] = tested on: NCI-H520
Outline: as §1

[20] = tested on: NCI-H647
Outline: as §1

[21] = tested on: PC-14
Outline: as §1

[22] = tested on: RERF-LC-KJ
Outline: as §1

[23] = tested on: SW 900
Outline: as §1

NC(=O)Nc1cc(-c2cccc(F)c2)sc1C(=O)N[C@H]1CCCNC1 [AZD7762] + N=C(N)NC(=N)NCCc1ccccc1 [Phenformin] (partner 250 µM)
relative viability ([1]; first compound 0.01 µM): 0.465 | relative viability ([1]; first compound 0.03162 µM): 0.406 | relative viability ([1]; first compound 0.1 µM): 0.453 | relative viability ([1]; first compound 0.3162 µM): 0.495 | relative viability ([1]; first compound 1 µM): 0.442 | relative viability ([2]; first compound 0.01 µM): 0.458 | relative viability ([2]; first compound 0.03162 µM): 0.446 | relative viability ([2]; first compound 0.1 µM): 0.515 | relative viability ([2]; first compound 0.3162 µM): 0.349 | relative viability ([2]; first compound 1 µM): 0.131 | relative viability ([3]; first compound 0.01 µM): 0.325 | relative viability ([3]; first compound 0.03162 µM): 0.359 | relative viability ([3]; first compound 0.1 µM): 0.278 | relative viability ([3]; first compound 0.3162 µM): 0.261 | relative viability ([3]; first compound 1 µM): 0.164 | relative viability ([4]; first compound 0.01 µM): 0.337 | relative viability ([4]; first compound 0.03162 µM): 0.357 | relative viability ([4]; first compound 0.1 µM): 0.402 | relative viability ([4]; first compound 0.3162 µM): 0.378 | relative viability ([4]; first compound 1 µM): 0.374 | relative viability ([5]; first compound 0.01 µM): 0.154 | relative viability ([5]; first compound 0.03162 µM): 0.265 | relative viability ([5]; first compound 0.1 µM): 0.16 | relative viability ([5]; first compound 0.3162 µM): 0.185 | relative viability ([5]; first compound 1 µM): 0.121 | relative viability ([6]; first compound 0.01 µM): 0.783 | relative viability ([6]; first compound 0.03162 µM): 0.76 | relative viability ([6]; first compound 0.1 µM): 0.717 | relative viability ([6]; first compound 0.3162 µM): 0.772 | relative viability ([6]; first compound 1 µM): 0.525 | relative viability ([7]; first compound 0.01 µM): 0.645 | relative viability ([7]; first compound 0.03162 µM): 0.691 | relative viability ([7]; first compound 0.1 µM): 0.687 | relative viability ([7]; first compound 0.3162 µM): 0.612 | relative viability ([7]; first compound 1 µM): 0.694 | relative viability ([8]; first compound 0.01 µM): 0.51 | relative viability ([8]; first compound 0.03162 µM): 0.48 | relative viability ([8]; first compound 0.1 µM): 0.439 | relative viability ([8]; first compound 0.3162 µM): 0.252 | relative viability ([8]; first compound 1 µM): 0.18 | relative viability ([9]; first compound 0.01 µM): 0.44 | relative viability ([9]; first compound 0.03162 µM): 0.44 | relative viability ([9]; first compound 0.1 µM): 0.398 | relative viability ([9]; first compound 0.3162 µM): 0.33 | relative viability ([9]; first compound 1 µM): 0.211 | relative viability ([10]; first compound 0.01 µM): 0.428 | relative viability ([10]; first compound 0.03162 µM): 0.416 | relative viability ([10]; first compound 0.1 µM): 0.278 | relative viability ([10]; first compound 0.3162 µM): 0.351 | relative viability ([10]; first compound 1 µM): 0.279 | relative viability ([11]; first compound 0.01 µM): 0.553 | relative viability ([11]; first compound 0.03162 µM): 0.504 | relative viability ([11]; first compound 0.1 µM): 0.53 | relative viability ([11]; first compound 0.3162 µM): 0.428 | relative viability ([11]; first compound 1 µM): 0.502 | relative viability ([12]; first compound 0.01 µM): 0.446 | relative viability ([12]; first compound 0.03162 µM): 0.394 | relative viability ([12]; first compound 0.1 µM): 0.255 | relative viability ([12]; first compound 0.3162 µM): 0.171 | relative viability ([12]; first compound 1 µM): 0.1 | relative viability ([13]; first compound 0.01 µM): 0.647 | relative viability ([13]; first compound 0.03162 µM): 0.806 | relative viability ([13]; first compound 0.1 µM): 0.811 | relative viability ([13]; first compound 0.3162 µM): 0.685 | relative viability ([13]; first compound 1 µM): 0.496 | relative viability ([14]; first compound 0.01 µM): 0.411 | relative viability ([14]; first compound 0.03162 µM): 0.41 | relative viability ([14]; first compound 0.1 µM): 0.471 | relative viability ([14]; first compound 0.3162 µM): 0.384 | relative viability ([14]; first compound 1 µM): 0.423 | relative viability ([15]; first compound 0.01 µM): 0.426 | relative viability ([15]; first compound 0.03162 µM): 0.365 | relative viability ([15]; first compound 0.1 µM): 0.51 | relative viability ([15]; first compound 0.3162 µM): 0.483 | relative viability ([15]; first compound 1 µM): 0.371 | relative viability ([16]; first compound 0.01 µM): 0.4 | relative viability ([16]; first compound 0.03162 µM): 0.452 | relative viability ([16]; first compound 0.1 µM): 0.402 | relative viability ([16]; first compound 0.3162 µM): 0.425 | relative viability ([16]; first compound 1 µM): 0.242 | relative viability ([17]; first compound 0.01 µM): 0.389 | relative viability ([17]; first compound 0.03162 µM): 0.412 | relative viability ([17]; first compound 0.1 µM): 0.416 | relative viability ([17]; first compound 0.3162 µM): 0.341 | relative viability ([17]; first compound 1 µM): 0.317 | relative viability ([18]; first compound 0.01 µM): 1.05 | relative viability ([18]; first compound 0.03162 µM): 0.732 | relative viability ([18]; first compound 0.1 µM): 0.91 | relative viability ([18]; first compound 0.3162 µM): 1.04 | relative viability ([18]; first compound 1 µM): 0.618 | relative viability ([19]; first compound 0.01 µM): 0.623 | relative viability ([19]; first compound 0.03162 µM): 0.758 | relative viability ([19]; first compound 0.1 µM): 0.585 | relative viability ([19]; first compound 0.3162 µM): 0.306 | relative viability ([19]; first compound 1 µM): 0.283 | relative viability ([20]; first compound 0.01 µM): 0.495 | relative viability ([20]; first compound 0.03162 µM): 0.445 | relative viability ([20]; first compound 0.1 µM): 0.494 | relative viability ([20]; first compound 0.3162 µM): 0.315 | relative viability ([20]; first compound 1 µM): 0.106 | relative viability ([21]; first compound 0.01 µM): 0.652 | relative viability ([21]; first compound 0.03162 µM): 0.611 | relative viability ([21]; first compound 0.1 µM): 0.459 | relative viability ([21]; first compound 0.3162 µM): 0.305 | relative viability ([21]; first compound 1 µM): 0.213 | relative viability ([22]; first compound 0.01 µM): 0.481 | relative viability ([22]; first compound 0.03162 µM): 0.424 | relative viability ([22]; first compound 0.1 µM): 0.399 | relative viability ([22]; first compound 0.3162 µM): 0.4 | relative viability ([22]; first compound 1 µM): 0.382 | relative viability ([23]; first compound 0.01 µM): 0.777 | relative viability ([23]; first compound 0.03162 µM): 0.746 | relative viability ([23]; first compound 0.1 µM): 0.65 | relative viability ([23]; first compound 0.3162 µM): 0.579 | relative viability ([23]; first compound 1 µM): 0.29
